From patent US4732970A, “Antitumor amino acid and peptide derivatives of 1,4-bis(aminoalkyl and hydroxy-aminoalkyl)amino)-5,8-dihydroxyanthraquinones” (priority 1986, dated 1988)

What was measured:
[1] = test system: lymphocytic leukemia P388; test: Lymphocytic Leukemia P388 Test; assay type: in vivo, BDF1 mice; conditions: for Median Survival: BDF1 mice
Summary of the method: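 BDF1 mice (5–6 per group) were inoculated i.p. with 10^6 P388 cells, then dosed i.p. on days 1, 5 and 9 at various doses. Survival was followed for 60 days, and median survival time and the treated/control (T/C) survival ratio were calculated.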

[2] = test system: melanotic melanoma B16 tumor; test: Melanotic Melanoma B16 test; assay type: in vivo, BDF1 mice; conditions: for Median Survival: BDF1 mice; for T/C × 100 (%): ratio of survival time treated/control
Description: The animals used were BDFl mice, all of the same sex, weighing a minimum of 17 g and all within a 3 g weight range. There were 12 animals per test group. A 1 g portion of melanotic melanoma B16 tumor was homogenized in 10 ml of cold balanced salt solution and a 0.5 ml aliquot of the homogenate was implanted intraperitoneally into each of the test mice. The test compounds were administered intraperitoneally on days 1, 5 and 9 (relative to tumor inoculation) at various doses. The animals were weighed and survivors recorded on a regular basis for 60 days. The median survival time and ratio of survival time for treated (T)/control (C) animals were calculated. The positive control compound was 1,4-bis[(2-aminoethyl)amino]-5,8-dihydroxyanthraquinone, dihydrochloride (U.S. patent application Ser. No. 87,354, filed Oct. 23, 1979).

[3] = dose 0.75 mg/kg intraperitoneally on days 1, 5 and 9
[4] = dose 0.75 mg/kg intraperitoneally on days 1, 5 and 9, ratio of survival time treated/control
[5] = dose 1.5 mg/kg intraperitoneally on days 1, 5 and 9
[6] = dose 1.5 mg/kg intraperitoneally on days 1, 5 and 9, ratio of survival time treated/control
[7] = dose 3 mg/kg intraperitoneally on days 1, 5 and 9
[8] = dose 3 mg/kg intraperitoneally on days 1, 5 and 9, ratio of survival time treated/control

| Structure (SMILES) | Median Survival [1, 3] [days] | T/C × 100 (%) [1, 4] [%] | Median Survival [1, 5] [days] | T/C × 100 (%) [1, 6] [%] | Median Survival [1, 7] [days] | T/C × 100 (%) [1, 8] [%] | Median Survival [2, 3] [days] | T/C × 100 (%) [2, 3] [%] | Median Survival [2, 5] [days] | T/C × 100 (%) [2, 5] [%] | Median Survival [2, 7] [days] | T/C × 100 (%) [2, 7] [%] | response vs control in vivo at 0.75 mg/kg ([1]; Mus musculus, P388, ip, dose 0.75 mg/kg intraperitoneally on days 1, 5 and 9, ratio of survival time treated/control, read-out: T/C × 100 (%)) [%] | response vs control in vivo at 1.5 mg/kg ([1]; Mus musculus, P388, ip, dose 1.5 mg/kg intraperitoneally on days 1, 5 and 9, ratio of survival time treated/control, read-out: T/C × 100 (%)) [%] | response vs control in vivo at 3 mg/kg ([1]; Mus musculus, P388, ip, dose 3 mg/kg intraperitoneally on days 1, 5 and 9, ratio of survival time treated/control, read-out: T/C × 100 (%)) [%] |
| --- | --- | --- | --- | --- | --- | --- | --- | --- | --- | --- | --- | --- | --- | --- | --- |
| Cl.Cl.N[C@@H](CCC(=O)O)C(=O)NCCNc1ccc(NCCNC(=O)[C@@H](N)CCC(=O)O)c2c1C(=O)c1c(O)ccc(O)c1C2=O (relative stereo) [Example 23, [S-(R*,R*)]-5,5'-[(9,10-Dihydro-5,8-dihydroxy-9,10-dioxo-1,4-anthracenediyl)bis(imino-2,1-ethanediylimino)]-bis[4-amino-5-oxo-pentanoic acid], dihydrochloride] | 22.0 | 220 | 24.5 | 245 | 41.0 | 410 | 27.5 | 162 | 31.0 | 182 | 22.0 | 129 | – | – | – |
| C[C@@H](O)[C@H](N)C(=O)NCCNc1ccc(NCCNC(=O)[C@@H](N)[C@@H](C)O)c2c1C(=O)c1c(O)ccc(O)c1C2=O.O=C(O)C(F)(F)F.O=C(O)C(F)(F)F (relative stereo) [Example 26, [2S-(2R*,2'R*,3S*,3'S*)]-N,N'-[(9,10-Dihydro-5,8-dihydroxy-9,10-dioxo-1,4-anthracenediyl)bis(imino-2,1-ethanediyl)]bis[2-amino-3-hydroxybutanamide]bis(trifluo roacetate)] | 21.0 | 210 | 22.5 | 225 | 33.5 | 335 | 35.0 | 206 | 39.5 | 232 | 40.0 | 235 | – | – | – |
| Br.Br.Br.Br.NCCCC[C@H](N)C(=O)NCCNc1ccc(NCCNC(=O)[C@@H](N)CCCCN)c2c1C(=O)c1c(O)ccc(O)c1C2=O (relative stereo) [Example 33, [S-(R*,R*)]-N,N'-[(9,10-Dihydro-5,8-dihydroxy-9,10-dioxo-1,4-anthracenediyl)bis(imino-2,1-ethanediyl)]bis[2,6-diaminohexanamide], tetrahydrobromide] | 23.0 | 230 | 33.0 | 330 | 13.0 | 130 | 26.5 | 156 | 37.5 | 221 | 25.5 | 162 | – | – | – |
| Cl.Cl.NCC(=O)NCCNc1ccc(NCCNC(=O)CN)c2c1C(=O)c1c(O)ccc(O)c1C2=O [Example 19, N,N'-[(9,10-Dihydro-5,8-dihydroxy-9,10-dioxo-1,4-anthracenediyl)bis(imino-2,1-ethanediyl)]bis[2-amino-acetamide], dihydrochloride] | 22.0 | – | 24.0 | – | 34.5 | – | 27.5 | 162 | 28.0 | 165 | 37.0 | 218 | 183 | 200 | 288 |
